Five molecules from ChEMBL document CHEMBL1201862, “PubChem BioAssay data set” (2004) can be followed below.

Common to all, as to assay: inhibition of tumour cell growth, NCI panel, 48 h
Assay [1] has as its system A549.
For assay [2], the system named is HOP-62.
The test system of assay [3] is IGROV-1.
The subject of assay [4] is KM12.
Assay [5] concerns LXFL 529.
The test system of assay [6] is M14.
The subject of assay [7] is RPMI-8226.
The test system of assay [8] is RXF 393.
Assay [9] concerns SF-295.
In assay [10] the test system is SK-MEL-5.
Assay [11] deals with SK-OV-3.
For assay [12], the system named is SN12C.
For assay [13], the system named is SNB-19.
The subject of assay [14] is UACC-257.
Assay [15] relates to UO-31.
Assay [16] concerns SNB-75.
The test system of assay [17] is MCF7.
Assay [18] concerns MDA-MB-231.
The test system of assay [19] is NCI/ADR-RES.
Assay [20] relates to T47D.

The structures appear in SMILES notation.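 1) Cells in 96-well plates. 2) Compound, 48 h, 5 concentrations. 3) Linear interpolation between surrounding doses. 4) Unreached endpoint = highest concentration. GI50 = concentration required for 50% inhibition of growth.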 Activity calls are given as the source filed them. Rule as the data show it: active = GI50 up to about 1.1 µM and inactive = higher. Some results are limits rather than exact numbers.

In the case of `COc1ccc(O)cc1C=O`, the GI50 in assay [1] is > 100 µM (inactive); in assay [2] it was > 100 µM (inactive); in assay [3], > 100 µM (inactive); in assay [4] it was 23.8 µM (inactive); in assay [5], 77.1 µM (inactive); in assay [6], 43.2 µM (inactive). The GI50 in [7] was 60.1 µM (inactive); in assay [8] it was > 100 µM (inactive); in assay [9], > 100 µM (inactive); in assay [10], 61 µM (inactive); in assay [11], > 100 µM (inactive); in assay [12], > 100 µM (inactive). Further, the figures for the GI50 in assay [13], in assay [14] and in assay [15] were > 100 µM (inactive), 48.1 µM (inactive) and > 100 µM (inactive), respectively.
As for `N#CCCN(CCC#N)c1ccc(/C=C2\N=C(COc3ccc(Cl)cc3Cl)OC2=O)cc1`, the GI50 in [1], in [2], in [3], in assay [4], in assay [5] and in assay [6] was > 100 µM (inactive) each time. Further, the GI50 in assay [7], in assay [9], in assay [10], in assay [11], in assay [12] and in assay [13] was > 100 µM (inactive) each time. Moreover, the figures for the GI50 in [16], in [14] and in [15] were 71.8 µM (inactive), > 100 µM (inactive) and > 100 µM (inactive), respectively.
For the molecule `CCOc1ccccc1/N=N/c1ccc2oc(=O)c(C(=O)Nc3cccc(C)c3)cc2c1`, the GI50 is 42.3 µM (inactive) in [1]; 49.1 µM (inactive) in [2]; 39.5 µM (inactive) in assay [3]; 30 µM (inactive) in [4]; 26.1 µM (inactive) in assay [5]; 18.7 µM (inactive) in assay [6]. Moreover, the GI50 in assay [7] was 24.5 µM (inactive); in assay [9], 29.6 µM (inactive); in [10] it was 15.1 µM (inactive); in [11] it was 49.7 µM (inactive); in assay [12], 36.3 µM (inactive); in assay [13] it was 20.3 µM (inactive). The GI50 is 37 µM (inactive) in [16], 26.1 µM (inactive) in assay [14] and 16.6 µM (inactive) in assay [15].
Turning to `C[C@]12CCC(=O)C[C@H]1CCC(O)[C@@H]2Br` (some centres undefined), the GI50 in assay [1], in [2], in assay [3], in assay [4], in [5] and in assay [6] was > 100 µM (inactive) each time. Moreover, the GI50 in assay [7], in [9], in assay [10], in [11], in assay [12] and in assay [13] was > 100 µM (inactive) throughout. In addition, the GI50 in assay [16], in assay [14] and in [15] was > 100 µM (inactive) throughout.
Regarding `COC(=O)[C@]12CCC(C)(C)C[C@H]1[C@H]1C(=O)C=C3[C@@]4(C)C=C(C#N)C(=O)C(C)(C)[C@@H]4CC[C@@]3(C)[C@]1(C)CC2` [BARDOXOLONE METHYL], the GI50 is 0.0294 µM (active) in assay [1]; 0.0268 µM (active) in assay [2]; 0.0405 µM (active) in assay [3]; 0.0163 µM (active) in [4]; 0.0171 µM (active) in assay [6]; < 0.0107 µM (active) in [17]. Moreover, the GI50 in assay [18] is 0.0301 µM (active); in assay [19] it was 0.0188 µM (active); in assay [7] it was < 0.0104 µM (active); in assay [8], 0.0247 µM (active); in assay [9], 0.0289 µM (active); in assay [10] it was 0.0286 µM (active). Also, the GI50 is 0.126 µM (active) in assay [11]; 0.0237 µM (active) in assay [12]; 0.0408 µM (active) in [13]; 0.139 µM (active) in assay [16]; 0.0288 µM (active) in [20]; 0.0455 µM (active) in [14]. For the same molecule, in assay [15], the GI50 is 0.0818 µM (active).
